Assays:
A549 cells = test: Cytotoxic activity, WST-1 assay, lung cancer A549; assay type: cell-based, human; details: for SI (IC50 HFF-1/IC50 cancer line) A549: HFF-1 vs A549; for IC50: Homo sapiens, lung cancer A549, 72 h, WST-1
Source text: (§1) Anticancer activity of compounds 11–14 was designated against following human cancer cell lines: melanoma (Colo-829), ovarian cancer (SK-OV-3), breast cancer (MDA-MB-231, T47D and MCF-7), lung cancer (A549) and normal fibroblasts (HFF-1). As a reference substance, the doxorubicin was used. The results are presented in Table 1 as IC50, where IC50 means the concentration of tested compounds (µM) causing the growth inhibition of 50% for given tumor cells. The negative value (Neg.) means that the IC50 is higher than 30 µM. Selectivity index (SI) as the ratio of the IC50 for normal fibroblast (HFF-1) to IC50 of the corresponding cell line, is presented in Table S2.
(§2) Compounds 7–14 and doxorubicin were tested for cytotoxic activity in vitro against panel of human cancer cell lines: melanoma (Colo-829, ATCC, Rockville, MD, USA), ovarian cancer (SK-OV-3, ATCC, Rockville, MD, USA), breast cancer (T47D, MCF-7, and MDA-MB-231, ATCC, Rockville, MD, USA) and lung cancer (A549, ATCC, Rockville, MD, USA). The cultured cells were kept at 37 °C and 5% CO2. The cells were seeded (5 × 10^4 cells/well/[…] DMEM supplemented with 10% FCS and streptomycin/penicillin) using 96-well plates (Nunc Thermo Fisher Scientific, Waltham, MA, USA). The tested compounds 7–14 with the concentration of 1–100 µg/mL DMSO were inducted with the cancer cells for 72 h. The WST-1-formazan (proliferation reagent WST-1 assay, Roche Diagnostics, Mannheim, Germany) was detected using a microplate reader at 450 nm. Results were expressed as a mean value of at least three independent experiments performed in triplicate.

Colo-829 cells = test: Cytotoxic activity, WST-1 assay, melanoma Colo-829; assay type: cell-based, human; details: for SI (IC50 HFF-1/IC50 cancer line) Colo-829: HFF-1 vs Colo-829; for IC50: Homo sapiens, melanoma Colo-829, 72 h, WST-1
Source text: as §1, §2

HFF-1 cells = test: Cytotoxic activity, WST-1 assay, normal fibroblasts HFF-1; assay type: cell-based; details: Homo sapiens, normal fibroblasts HFF-1, 72 h
Source text: as §1, §2

[1] = target: T1, NQO1 (DT-diaphorase, EC 1.6.5.5, human recombinant) (Homo sapiens, UniProt P15559); test: NQO1 substrate NADPH recycling enzymatic assay; assay type: biochemical; details: compound 10 µmol/L, pH 7.4, 25 °C, absorbance at 340 nm
T1 construct: purchased Sigma-Aldrich
T1 sequence (P15559 whole entry): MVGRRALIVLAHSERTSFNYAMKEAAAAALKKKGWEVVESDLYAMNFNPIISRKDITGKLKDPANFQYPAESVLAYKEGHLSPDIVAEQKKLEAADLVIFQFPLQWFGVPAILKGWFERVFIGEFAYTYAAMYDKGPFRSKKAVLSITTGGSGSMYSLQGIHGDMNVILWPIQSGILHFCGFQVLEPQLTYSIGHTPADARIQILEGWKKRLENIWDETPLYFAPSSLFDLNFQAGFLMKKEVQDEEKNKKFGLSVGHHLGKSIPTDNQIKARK
Protocol: The interaction between 1,4-quinone moiety of hybrid and NQO1 protein leads to reduction in quinone to hydroquinone and production of reactive oxide form (ROS). According to a literature method, the ability of hybrids 11–14 and streptonigrin (ST) to be a substrate for NQO1 was examined by measuring the oxidation of NADPH to NADP^+ [29, 32].
Compounds 11–14 (10 µmol/L) were tested as NQO1 substrates using the NADPH recycling assay according to the literature method. The recombinant NQO1 (DT-diaphorase, EC 1.6.5.5, human recombinant, Sigma-Aldrich) was used, and the oxidation of NADPH to NADP^+ was measured at the absorption wavelength of 340 nm on the BioTek 800TS microplate reader (BioKom, Janki, Poland). Compounds were dissolved in dimethyl sulfoxide (2 µL) and added to the 96-well plate. The NQO1 protein (1.4 µg/mL) in 50 mmol/L potassium phosphate buffer (pH = 7.4) was added to each well (198 µL) (Nunc Thermo Fisher Scientific, Waltham, MA, USA). Once the 96-well plate was filled with the assay solutions, except the NADPH solution, it was placed into the instrument and left to sit for 5 min before starting the measurements. The enzymatic reaction was initiated by automatically dispensing the NADPH solution into the wells, and data were recorded at 10 s intervals for 5 min at 25 °C. The linear part of the absorbance vs. time graphs (the first 20 s to 1 min) was fitted, and the slopes were calculated. NADPH oxidation rates were compared with reactions lacking the tested compound. Initial velocities were calculated, and data were expressed as µmol NADPH/µmol NQO1/min. All reactions were carried out at least in triplicate.

MCF-7 cells = test: Cytotoxic activity, WST-1 assay, breast cancer MCF-7; assay type: cell-based, human; details: for SI (IC50 HFF-1/IC50 cancer line) MCF-7: HFF-1 vs MCF-7; for IC50: Homo sapiens, MCF7, breast cancer MCF-7, 72 h, WST-1
Source text: as §1, §2

MDA-MB-231 cells = test: Cytotoxic activity, WST-1 assay, breast cancer MDA-MB-231; assay type: cell-based, human; details: for SI (IC50 HFF-1/IC50 cancer line) MDA-MB-231: HFF-1 vs MDA-MB-231; for IC50: Homo sapiens, breast cancer MDA-MB-231, 72 h, WST-1
Source text: as §1, §2

T47D cells = test: Cytotoxic activity, WST-1 assay, breast cancer T47D; assay type: cell-based, human; details: for SI (IC50 HFF-1/IC50 cancer line) T47D: HFF-1 vs T47D; for IC50: Homo sapiens, breast cancer T47D, 72 h, WST-1
Source text: as §1, §2

SK-OV-3 cells = test: Cytotoxic activity, WST-1 assay, ovarian cancer SK-OV-3; assay type: cell-based, human; details: for SI (IC50 HFF-1/IC50 cancer line) SK-OV-3: HFF-1 vs SK-OV-3; for IC50: Homo sapiens, ovarian cancer SK-OV-3, 72 h, WST-1
Source text: as §1, §2

O=C1C(Cl)=C(Oc2cccc3ccc(N4CCOCC4)nc23)C(=O)c2cnccc21 [Compound 13f, 6-chloro-7-{[2-(morpholin-4-yl)quinolin-8-yl]oxy}isoquinoline-5,8-dione]
SI (IC50 HFF-1/IC50 cancer line) A549 (A549 cells): 15.07 | IC50 (A549 cells): 1.22 ± 0.08 µM | SI (IC50 HFF-1/IC50 cancer line) Colo-829 (Colo-829 cells): 8.76 | IC50 (Colo-829 cells): 2.1 ± 0.06 µM | IC50 (HFF-1 cells): 18.4 ± 0.35 µM | NQO1 activity (enzymatic conversion rate) [1]: 143 ± 26 µmol NADPH/µmol NQO1/min | SI (IC50 HFF-1/IC50 cancer line) MCF-7 (MCF-7 cells): 17.85 | IC50 (MCF-7 cells): 1.03 ± 0.19 µM | SI (IC50 HFF-1/IC50 cancer line) MDA-MB-231 (MDA-MB-231 cells): 141.46 | IC50 (MDA-MB-231 cells): 130 ± 50 nM | SI (IC50 HFF-1/IC50 cancer line) T47D (T47D cells): 8.55 | IC50 (T47D cells): 2150 ± 60 nM | SI (IC50 HFF-1/IC50 cancer line) SK-OV-3 (SK-OV-3 cells): 14.95 | IC50 (SK-OV-3 cells): 1.23 ± 0.08 µM

O=C1C(Cl)=C(Oc2cccc3ccc(N4CCCC4)nc23)C(=O)c2ccccc21 [Compound 14e, 2-chloro-3-{[2-(pyrrolidin-1-yl)quinolin-8-yl]oxy}naphthalene-1,4-dione]
SI (IC50 HFF-1/IC50 cancer line) A549 (A549 cells): 0.84 | IC50 (A549 cells): 22.1 ± 0.89 µM | SI (IC50 HFF-1/IC50 cancer line) Colo-829 (Colo-829 cells): 0.85 | IC50 (Colo-829 cells): 22 ± 0.6 µM | IC50 (HFF-1 cells): 18.7 ± 1.36 µM | NQO1 activity (enzymatic conversion rate) [1]: 354 ± 22 µmol NADPH/µmol NQO1/min | SI (IC50 HFF-1/IC50 cancer line) MCF-7 (MCF-7 cells): 0.78 | IC50 (MCF-7 cells): 24.05 ± 0.21 µM | SI (IC50 HFF-1/IC50 cancer line) MDA-MB-231 (MDA-MB-231 cells): 2.43 | IC50 (MDA-MB-231 cells): 7660 ± 1120 nM | IC50 (T47D cells): > 30000 nM | SI (IC50 HFF-1/IC50 cancer line) SK-OV-3 (SK-OV-3 cells): 1.17 | IC50 (SK-OV-3 cells): 15.9 ± 0.22 µM

O=C1C(Cl)=C(Oc2cccc3ccc(N4CCOCC4)nc23)C(=O)c2ccccc21 [Compound 14f, 2-chloro-3-{[2-(morpholin-4-yl)quinolin-8-yl]oxy}naphthalene-1,4-dione]
IC50 (A549 cells): 14 ± 0.86 µM | IC50 (Colo-829 cells): 11.3 ± 1.97 µM | IC50 (HFF-1 cells): 20.3 ± 0.87 µM | NQO1 activity (enzymatic conversion rate) [1]: 87 ± 15 µmol NADPH/µmol NQO1/min | IC50 (MCF-7 cells): 17.4 ± 1.02 µM | IC50 (MDA-MB-231 cells): 2350 ± 90 nM | IC50 (T47D cells): > 30000 nM | IC50 (SK-OV-3 cells): 14.2 ± 0.76 µM

COc1cccc2c1C(=O)c1c(O)c3c(c(O)c1C2=O)C[C@@](O)(C(=O)CO)C[C@@H]3O[C@H]1C[C@H](N)[C@H](O)[C@H](C)O1 [Doxorubicin, doxorubicin, reference compound]
SI (IC50 HFF-1/IC50 cancer line) A549 (A549 cells): 6.00 | IC50 (A549 cells): 0.02 ± 0.01 µM | SI (IC50 HFF-1/IC50 cancer line) Colo-829 (Colo-829 cells): 2.40 | IC50 (Colo-829 cells): 0.05 ± 0.01 µM | IC50 (HFF-1 cells): 0.12 ± 0.03 µM | SI (IC50 HFF-1/IC50 cancer line) MCF-7 (MCF-7 cells): 1.00 | IC50 (MCF-7 cells): 0.12 ± 0.05 µM | SI (IC50 HFF-1/IC50 cancer line) MDA-MB-231 (MDA-MB-231 cells): 0.19 | IC50 (MDA-MB-231 cells): 640 ± 60 nM | SI (IC50 HFF-1/IC50 cancer line) T47D (T47D cells): 3.00 | IC50 (T47D cells): 40 ± 10 nM | SI (IC50 HFF-1/IC50 cancer line) SK-OV-3 (SK-OV-3 cells): 0.80 | IC50 (SK-OV-3 cells): 0.15 ± 0.03 µM

COC1=C(N)C(=O)c2nc(-c3nc(C(=O)O)c(C)c(-c4ccc(OC)c(OC)c4O)c3N)ccc2C1=O [ST, streptonigrin, reference compound]
NQO1 activity (enzymatic conversion rate) [1]: 725 ± 84 µmol NADPH/µmol NQO1/min | NQO1 activity (enzymatic conversion rate) ([1]; listed as streptonigrin): 725 µmol NADPH/µmol NQO1/min

Reference: paper PMC9572083, “Hybrids of 1,4-Quinone with Quinoline Derivatives: Synthesis, Biological Activity, and Molecular Docking with DT-Diaphorase (NQO1)” (Molecules, 2022)
